In one test the target is dimer interface of B-Raf (Homo sapiens, UniProt P15056). The experiment in a line: Dissociation constant (Kd) determination from intrinsic Trp fluorescence (ITF) measurements. Format: binding. The settings on record: for Kd, binding affinity to the dimer forming interface of B-Raf (FIG. 1): no unit printed in this block.
A further test concerns the target B-Raf (Homo sapiens, UniProt P15056). It counts as binding.
The subject of test [1] is NRASQ61K-mutant SBC12 melanoma cells. Description: Western blotting of MEK/ERK signaling in melanoma cells. To be noted: peptide added to SBC12 cells; 1 μM PLX4032 or DMSO; Western blot.
Procedure: Following recovery at 37° C. for 30 minutes, the cells were treated with 1 μM PLX4032 for 1 hour or DMSO as a vehicle control. Subsequently, the cells were harvested, lysed using RIPA buffer and analyzed by Western blotting using the indicated antibodies. […] Four hours prior to harvest, the cells were treated with 1 μM vemurafenib (PLX4032), or the same volume of DMSO as vehicle control. RIPA buffer lysates were subjected to Western blotting using the indicated antibodies. Detection of HSP90 serves as a representative loading control.
Following recovery at 37° C. for 30 minutes, cells were treated with 1 μM PLX4032 for 1 hour or DMSO as a vehicle control. Subsequently, the cells were harvested, lysed using RIPA buffer, and analyzed by Western blotting using the indicated antibodies.

pKd: −log10 of the molar value.

dimer interface of B-Raf, sequence (P15056 whole entry): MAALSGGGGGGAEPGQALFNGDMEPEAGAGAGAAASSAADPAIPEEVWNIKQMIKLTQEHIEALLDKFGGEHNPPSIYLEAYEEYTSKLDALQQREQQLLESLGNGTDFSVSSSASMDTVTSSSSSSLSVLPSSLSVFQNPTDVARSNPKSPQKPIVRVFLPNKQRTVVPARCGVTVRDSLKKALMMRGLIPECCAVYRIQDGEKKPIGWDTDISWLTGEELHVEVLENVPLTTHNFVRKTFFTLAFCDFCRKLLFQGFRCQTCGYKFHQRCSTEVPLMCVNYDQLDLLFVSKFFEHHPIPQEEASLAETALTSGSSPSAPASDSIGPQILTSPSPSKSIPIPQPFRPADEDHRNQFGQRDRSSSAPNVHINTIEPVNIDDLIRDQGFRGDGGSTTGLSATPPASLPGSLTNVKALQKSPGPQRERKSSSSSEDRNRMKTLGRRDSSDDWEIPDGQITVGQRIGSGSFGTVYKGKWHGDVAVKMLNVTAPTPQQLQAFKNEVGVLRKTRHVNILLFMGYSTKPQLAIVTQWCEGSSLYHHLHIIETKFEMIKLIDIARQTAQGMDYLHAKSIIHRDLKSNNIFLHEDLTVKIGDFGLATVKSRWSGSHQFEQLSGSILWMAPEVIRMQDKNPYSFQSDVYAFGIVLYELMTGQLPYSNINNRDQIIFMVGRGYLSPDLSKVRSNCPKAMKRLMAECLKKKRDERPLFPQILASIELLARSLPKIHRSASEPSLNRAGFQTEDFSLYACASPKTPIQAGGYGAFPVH
B-Raf, sequence (P15056 whole entry): as above
Procedure for dimer interface of B-Raf: The dissociation constant is an indicator of binding strength between two molecules. For the reaction: P+L↔PL Kd is expressed by Equation 1: Kd=[P][L]/[PL] Eq. 1 where [P] is the concentration of free Protein, [L] is the concentration of free Ligand, and [PL] is the Ligand-bound-Protein.
Fluorescence intensity was measured with a Hitachi F-2500 fluorescence spectrophotometer. A 1.6 mL of protein solution (0.5 μM) was placed in a cuvette and equilibrated at 15° C. for 1 hour. After equilibration, small increments (2-15 μL) of the ligand solution were injected in the cuvette. The experiments were performed in 20 mM Hepes buffer (pH 7.5), 10 mM MgCl2, 30 mM NaCl. […] The slits were set at 10 and 10 nm in the excitation and emission respectively. To determine dilution effect of B-Raf (due to ligand addition) and any fluorescence effect by unbound ligand, a blank sample containing Trp with the same fluorescence signal, was titrated with ligand additions as described above. The sample absorbance was kept below 0.1 to minimize the inner filter effect.
Dissociation constant of B-Raf/Ligand was calculated by fitting data in Eq. 2.
Data were analyzed using Origin 7, using the one site bind function for nonlinear fit.

`CC[C@H](C)[C@H](NC(=O)[C@H](CC(N)=O)NC(=O)[C@@H](NC(=O)[C@H](Cc1cnc[nH]1)NC(=O)[C@H](CCCNC(=N)N)NC(=O)[C@@H](NC(=O)[C@H](CCCCN)NC(=O)[C@H](CCCNC(=N)N)NC(=O)[C@H](CC(C)C)NC(=O)[C@@H](NC(=O)CN)C(C)C)[C@@H](C)O)C(C)C)C(=O)N[C@@H](CC(C)C)C(=O)N[C@@H](CC(C)C)C(=O)N[C@@H](Cc1ccccc1)C(=O)N[C@@H](CCSC)C(=O)NCC(=O)N[C@@H](Cc1ccc(O)cc1)C(=O)N[C@@H](CO)C(=O)N[C@H](C(=O)O)[C@@H](C)O` [SEQ ID NO: 1] showed a pKd at dimer interface of B-Raf of approximately 5.42.
Turning to `CC[C@H](C)[C@H](NC(=O)[C@H](CC(N)=O)NC(=O)[C@@H](NC(=O)[C@H](Cc1cnc[nH]1)NC(=O)[C@H](CCCNC(=N)N)NC(=O)[C@@H](NC(=O)[C@H](CCCCN)NC(=O)[C@H](CC(C)C)NC(=O)[C@H](CC(C)C)NC(=O)[C@@H](NC(=O)CN)C(C)C)[C@@H](C)O)C(C)C)C(=O)N[C@@H](CC(C)C)C(=O)N[C@@H](CC(C)C)C(=O)N[C@@H](Cc1ccccc1)C(=O)N[C@@H](CCSC)C(=O)NCC(=O)N[C@@H](Cc1ccc(O)cc1)C(=O)N[C@@H](CO)C(=O)N[C@H](C(=O)O)[C@@H](C)O` [SEQ ID NO: 6], the pKd at dimer interface of B-Raf is approximately 6.27.
Take `CC[C@H](C)[C@H](NC(=O)[C@H](CC(N)=O)NC(=O)[C@@H](NC(=O)[C@H](Cc1c[nH]cn1)NC(=O)[C@H](CCCNC(=N)N)NC(=O)[C@H](C)NC(=O)[C@H](CCCCN)NC(=O)[C@H](CCCNC(=N)N)NC(=O)[C@H](CC(C)C)NC(=O)[C@@H](NC(=O)CN)C(C)C)C(C)C)C(=O)N[C@@H](CC(C)C)C(=O)N[C@@H](CC(C)C)C(=O)N[C@@H](Cc1ccccc1)C(=O)N[C@@H](CCSC)C(=O)NCC(=O)N[C@@H](Cc1ccc(O)cc1)C(=O)N[C@@H](CO)C(=O)N[C@H](C(=O)O)[C@@H](C)O` [SEQ ID NO: 8]: on B-Raf, the “ΔH of binding (ITC)” value is -8.32 kcal/mol and the “ΔS of binding (ITC)” value is on record as −28.4 J/mol·K.
As to `CC[C@H](C)[C@H](NC(=O)[C@H](CC(N)=O)NC(=O)[C@@H](NC(=O)[C@H](Cc1c[nH]cn1)NC(=O)[C@H](CCCNC(=N)N)NC(=O)[C@@H](NC(=O)[C@H](CCCCN)NC(=O)[C@H](CCCNC(=N)N)NC(=O)[C@H](CC(C)C)NC(=O)[C@@H](N)C(C)C)[C@@H](C)O)C(C)C)C(=O)N[C@@H](CC(C)C)C(=O)N[C@@H](CC(C)C)C(=O)N[C@@H](Cc1ccccc1)C(=O)N[C@@H](CCSC)C(=O)NCC(=O)O` [SEQ ID NO: 17], the “downstream signaling of MEK and ERK (pMEK, pERK)” value in test [1] was “reduce downstream signaling of MEK and ERK”.
Take GVLRKTHHVNILGFWGYST [SEQ ID NO: 2]: on dimer interface of B-Raf, the “Kd, binding affinity to the dimer forming interface of B-Raf (FIG. 1)” value is recorded as “no measurable binding”.
Turning to GVLRKTRFVNILLFMGYST [SEQ ID NO: 9], the “Kd, binding affinity to the dimer forming interface of B-Raf (FIG. 1)” value at dimer interface of B-Raf is reported as “no measurable binding”.
Still for that read-out and setting: in the case of GVLRKTRHVNILLDMGYST [SEQ ID NO: 14] it was “no measurable binding”.

Source of the values: patent US11162083B2, “Peptide based inhibitors of Raf kinase protein dimerization and kinase activity” (UNIVERSITY OF SOUTH CAROLINA, priority 2018, dated 2021).
